Source: publication PMC6799938, “Determinants of drug entry into the developing brain” (F1000Research, 2019)

Tests used:
[1] = Entry of "passive" markers into brain and CSF; conditions: passive marker, all ages (E19, P4, adults), 30 minutes
Method: Experimental procedure. In acute drug experiments, a single dose was injected that included traces of [ ^3H]-labelled drug (20µCi adults, 2µCi newborns). In chronic experiments, doses of unlabelled drug were given twice daily (09.00 and 17.00h) for four days before a final injection on the 5 ^th day identical to acute experiments. In passive marker experiments, all dosing was acute and contained only the [ ^3H]- or [ ^14C]-labelled compound (20µCi adults, 2µCi newborns).
In all experiments involving postnatal animals, injections were intraperitoneal (i.p.). In pregnant animals for fetal drug entry studies, the final injection of the radiolabelled marker was given intravenously (i.v.), as the peritoneal cavity required opening prior to the sampling period to gain access to the fetuses. For passive markers (L-glucose, sucrose and glycerol), fetal animals were individually injected i.p. while still within the uterine horn. All experiments took place between 09.00 and 15.00h. All pregnancy studies were completed with a single treatment group on one day. Postnatal groups were conducted with a single treatment group on one day or with the chronic group completed prior to the acute group.
Sample collection. Samples were collected 30 minutes after the final injection. This duration was chosen partly to limit any potential metabolism of the drugs and markers used but also to allow enough time for i.p. injected markers to reach the blood stream and, from there, to access the brain parenchyma across brain barriers, as well as to limit the CSF sink effect that could influence drug levels ( [Bito et al., 1966]). Thirty minutes is also within the half-life of these drugs ( [Adedoyin et al., 1987]; [Harrison & Gibaldi, 1976]; Lin & Levy, 1963). The other reason a 30-minute duration was chosen is that in the case of exposed fetal rat pups, it is difficult to maintain them in a reasonable physiological state for long periods due to deterioration of placental perfusion. Therefore, for comparative purposes, all studies were conducted at the same time.
For adult and newborn (P4) experiments, animals were terminally anaesthetized using inhaled isofluorane (IsoFlo 100% w/w, Abbott Laboratories). Blood samples were collected from the right cardiac ventricle, CSF from the cisterna magna (Habgood et al., 1992) and cortical segments of brain tissue dorsal to the ventricle of the frontal/parietal lobes, as previously described ( [Koehn et al., 2019]). Blood and CSF sampling from the P4 animals was terminal and would thus not have affected the physiological state of the animals during the experiment.
Sample preparation. Samples were processed immediately after collection. Blood was centrifuged at 7000rpm for five minutes and the plasma separated. CSF samples were examined microscopically for traces of red blood cells and discarded if contaminated (Habgood et al., 1992). In all experiments, the radioactivity in the injectate was also measured to confirm the uniformity of the injected material. All samples were weighed and transferred into scintillation vials. Soluene350 (0.5ml, PerkinElmer) was added to the brain samples. After being incubated at 36°C overnight to allow the tissue to solubilize, two drops of glacial acetic acid (Sigma) were added to neutralize the strongly alkaline Soluene350. All samples were then mixed with 5ml of scintillation fluid (Emulsifier-safe, PerkinElmer) before being transferred into the liquid scintillation counter (Tri-Carb 4910 TR, PerkinElmer) to count radioactivity disintegrations per minute (DPM) over five minutes each with luminescence correction on. Blank vials containing the same tissues without radioactivity were also counted alongside the samples to establish the level of background counts, which were always subtracted from the radioactivity counts of the corresponding experimental samples.
BrainorCSFtransfer=BrainorCSFDPM/μl/plasmaDPM/μl×100%

[2] = Placental transfer at E19 (fetal/maternal plasma concentration ratio); conditions: E19, passive permeability markers, acute; for Fetal/Maternal plasma concentration ratio: mean ± SD

Structure (SMILES): O=C[C@@H](O)[C@H](O)[C@@H](O)[C@@H](O)CO [L-Glucose, L-glucose]
- Brain/Plasma Ratio [1]: very low
- CSF/Plasma Ratio [1]: very low
- Fetal/Maternal plasma concentration ratio, range [2]: (8.3 - 27.7) %
- Fetal/Maternal plasma concentration ratio [2]: 16.7 ± 6.5%
- Fetal/Maternal plasma concentration ratio ([2]; listed as L-glucose): 16.7%
